From patent US20240368559A1, “METHOD OF PRODUCING BRAIN MICROVASCULAR ENDOTHELIAL-LIKE CELLS AND USE THEREOF” (PUBLIC UNIVERSITY CORPORATION NAGOYA CITY UNIVERSITY, priority 2021, published 2024)

Experiments:
Format in all cases: cell-based
[1] = test system: iBMELCs (human iPS cell-derived brain microvascular endothelial-like cells); test: Transendothelial electrical resistance (TEER) of iBMELCs induced to differentiate from iEPCs under varied medium and coating conditions; conditions: FIG. 6
Excerpt: iEPCs were induced to differentiate into iBMELCs under conditions where the coating agent and the additive added to the culture medium each varied. For coating the culture dish, as described above, two components of FBN and COL4, or three components obtained by adding any one component of VTN-N, LN221, LN411F, and LN511F to these two components, or four components obtained by adding LN411F and LN511F to these two components were used. As the third component, Laminin211, Laminin411, Laminin511, Agrin, Laminin-mix, Laminin-fragment mix, or hep ex was also used. […]
In order to examine the effect of cryopreserving iEPCs induced to differentiate from hiPSCs, the difference in transendothelial electrical resistance (TEER value) was compared between the presence and absence of freezing. A frozen group, in which iEPCs on day 14 of differentiation were frozen and thawed by the above-described method, and a unfrozen group of unfrozen iEPCs on day 14 of differentiation were induced to differentiate into iBMELCs by the above-described method while using the above-described differentiation-inducing condition A, and the TEER value was then measured. […] As used herein, the “maximum TEER value” means the maximum value among the TEER values measured on each day from day 2 after seeding to day 10 after seeding. […]

[2] = test system: iBPCs (human iPS cell-derived brain pericytes); test: Brain pericyte marker gene expression in iBPCs by RT-q PCR; conditions: FIG. 20; 1 μM A 83-01 from day 8, iBPCs on day 12 of differentiation
Procedure: (§1) The above-described hiPSCs were used and induced to differentiate into iBPCs. Human iPS cells cultured in mTeSR plus medium were detached by using TrypLE Select, seeded on a VTN-N-coated culture dish at a density of 2×10^4 cells/cm^2, and then cultured in mTeSR plus medium containing 10 μM of Y-27632 (manufactured by Focus Biomolecules) for 24 hours. Thereafter, the cells were cultured for 1 day in modified DMEM/F12 medium (DMEM/F12 containing 0.1% chemically defined lipid concentrate, 0.1×insulin-transferrin-selenium (from Thermo Fisher Scientific), 2 mM GlutaMAX (from Sigma-Aldrich), […] 1-thioglycerol (from Sigma-Aldrich), 50 μg/mL of L-ascorbic acid phosphate magnesium salt n-hydrate, and 1×penicillin-streptomycin solution) supplemented with 5 μM CHIR-99021 (manufactured by Focus Biomolecules). Next, the cells were cultured for 1 day in modified DMEM/F12 medium containing 50 ng/mL of FGF2. […]
The expression level of each brain pericyte marker gene was analyzed by RT-q PCR. […] Relative expression levels of mRNA in X (+) and X (−) were determined while the expression level of mRNA in hPCs was set to 1 as a reference. […]

[3] = test system: iBPCs (human iPS cell-derived brain pericytes); test: Brain pericyte marker protein expression in iBPCs by immunostaining; conditions: FIGS. 21 and 22; 1 μM A 83-01 in differentiation medium
Procedure: as §1, with “FGF2. Then, the cells were cultured for 2 days in EGM-2 medium (EGM-2 basal medium containing 2% FBS, 0.2 μg/mL hydrocortisone, 10 ng/mL FGF2, 20 ng/mL R3-IGF-1, 1 μg/mL ascorbic acid, 5 ng/mL hEGF, gentamicin, and amphotericin B) supplemented with 50 ng/mL PDGF-BB and 0.5 ng/mL VEGF. During this time, the medium was changed every day. On day 4, cells treated with 10 μM Y-27632 for 1 hour were dissociated using TrypLE Select, subcultured on a new VTN-N-coated culture dish at 1.25×10^4 cells/cm^2, and then induced to differentiate in an EGM-2 medium containing 50 ng/mL PDGF-BB. During this time, the medium was changed every day. On day 8 of differentiation, the cells were induced to differentiate in an EGM-2 medium containing 50 ng/mL PDGF-BB, and 1 μM A 83-01. During this time, the medium was changed every day.” for “FGF2.”
iBPCs (X(+) and X(−)) induced to differentiate from hiPSCs by the above method were analyzed by immunostaining in order to check the properties as BPCs. […] After that, the cells were washed three times with D-PBS (−), and then analyzed with an Operetta High-Content Imaging System (manufactured by PerkinElmer). […]

[4] = test system: iBPCs (human iPS cell-derived brain pericytes); test: Cell scratch test of cell migration ability and proliferation potential of iBPCs; conditions: FIGS. 23 and 24
Procedure: as §1
Samples used were iBPCs (X (+)) induced to differentiate by adding A 83-01 in the above method and iBPCs (X (−)) induced to differentiate without adding A 83-01 in the above method. […] How the cells migrated 0, 12, and 24 hours of culture after cell scratching was checked by bright field observation, and the scratched area was calculated by Image J.

Cc1cccc(-c2nn(C(=S)Nc3ccccc3)cc2-c2ccnc3ccccc23)n1 [A 83-01]
maximum TEER value (barrier function of iBMELCs) at content of 1 μM ([1]; 1 μM vs 10 μM): high barrier function equivalent to the case of the content of 10 μM
maximum TEER value (barrier function of iBMELCs), added vs not added ([1]; 0.1, 1 or 10 μM in HE-SFM with 20 ng/mL FGF2 and 7.5% B27s, FBN+COL4 coating): the barrier function of iBMELCs was higher than that when A 83-01 was not added
relative mRNA expression level of α-SMA (human primary pericytes = 1) [2]: suppress the gene expression of α-SMA to the same extent as that of human primary pericytes
expression of NG2 (relative average fluorescence intensity, X (−) = 1) [3]: did not significantly affect
expression of PDGFR-β (relative average fluorescence intensity, X (−) = 1) [3]: did not significantly affect
protein expression of α-SMA (relative average fluorescence intensity, X (−) = 1) [3]: suppress the protein expression of α-SMA
cell migration ability and proliferation potential of iBPCs ([4]; X (+) vs X (−)): enhance the cell migration ability and proliferation potential of iBPCs
relative distance of the cell scratch portion (0 hour = 1) ([4]; iBPCs (X (+)), 24 hours after cell scratching, number of samples 1): 0
